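Step 1: Grow cells in 96-well plates. Step 2: Expose to compound for 48 hours at 5 concentrations. Step 3: Interpolate endpoints linearly; if unreached, use highest concentration. At the GI50, growth is halved. TGI denotes the concentration required for complete inhibition of growth.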
Key:
Assay in all cases: DTP human tumour cell line panel, 48 h; in the data active = GI50 below about 0.43 µM; inactive = the rest
786-0 renal = system: 786-0 renal
A498 renal = system: A498 renal
A549 NSCLC = system: A549 NSCLC
ACHN renal = system: ACHN renal
CAKI-1 renal = system: CAKI-1 renal
CCRF-CEM leukemia = system: CCRF-CEM leukemia
COLO 205 colon = system: COLO 205 colon
DU-145 prostate = system: DU-145 prostate
EKVX NSCLC = system: EKVX NSCLC
HCC-2998 colon = system: HCC-2998 colon
HCT-116 colon = system: HCT-116 colon
HCT-15 colon = system: HCT-15 colon
HL-60(TB) leukemia = system: HL-60(TB) leukemia
HOP-62 NSCLC = system: HOP-62 NSCLC
HOP-92 NSCLC = system: HOP-92 NSCLC
HS 578T breast = system: HS 578T breast
HT29 colon = system: HT29 colon
IGROV1 ovarian = system: IGROV1 ovarian
KM12 colon = system: KM12 colon
LOX IMVI melanoma = system: LOX IMVI melanoma
M14 melanoma = system: M14 melanoma
MALME-3M melanoma = system: MALME-3M melanoma
MCF7 breast = system: MCF7 breast
MDA-MB-231 breast = system: MDA-MB-231 breast
MDA-MB-435 = system: MDA-MB-435
MDA-N = system: MDA-N
MOLT-4 leukemia = system: MOLT-4 leukemia
NCI-H23 lung = system: NCI-H23 lung
NCI-H460 lung = system: NCI-H460 lung
NCI-H522 lung = system: NCI-H522 lung
NCI/ADR-RES ovarian = system: NCI/ADR-RES ovarian
OVCAR-3 ovarian = system: OVCAR-3 ovarian
OVCAR-4 ovarian = system: OVCAR-4 ovarian
OVCAR-5 ovarian = system: OVCAR-5 ovarian
OVCAR-8 ovarian = system: OVCAR-8 ovarian
PC-3 prostate = system: PC-3 prostate
RPMI-8226 leukemia = system: RPMI-8226 leukemia
SF-268 CNS = system: SF-268 CNS
SF-295 CNS = system: SF-295 CNS
SF-539 CNS = system: SF-539 CNS
SK-MEL-2 melanoma = system: SK-MEL-2 melanoma
SK-MEL-28 melanoma = system: SK-MEL-28 melanoma
SK-MEL-5 melanoma = system: SK-MEL-5 melanoma
SN12C renal = system: SN12C renal
SNB-19 CNS = system: SNB-19 CNS
SNB-75 CNS = system: SNB-75 CNS
SR leukemia = system: SR leukemia
SW-620 colon = system: SW-620 colon
T-47D breast = system: T-47D breast
TK-10 renal = system: TK-10 renal
U251 CNS = system: U251 CNS
UACC-257 melanoma = system: UACC-257 melanoma
UACC-62 melanoma = system: UACC-62 melanoma
UO-31 renal = system: UO-31 renal
BT-549 breast = system: BT-549 breast
K-562 leukemia = system: K-562 leukemia
NCI-H226 lung = system: NCI-H226 lung
RXF 393 renal = system: RXF 393 renal
SK-OV-3 ovarian = system: SK-OV-3 ovarian

COc1cc(OCc2ccc3nc(-c4ccccc4)c(Cl)nc3c2)cc(OC)c1OC
52300 nM: TGI (U251 CNS)
98900 nM: TGI (A498 renal)
96100 nM: TGI (MALME-3M melanoma)
78300 nM: TGI (HOP-92 NSCLC)
> 100000 nM: TGI (786-0 renal) | TGI (A549 NSCLC) | TGI (ACHN renal) | TGI (CAKI-1 renal) | TGI (CCRF-CEM leukemia) | TGI (COLO 205 colon) | TGI (DU-145 prostate) | TGI (EKVX NSCLC) | TGI (HCC-2998 colon) | TGI (HCT-116 colon) | TGI (HCT-15 colon) | TGI (HL-60(TB) leukemia) | TGI (HOP-62 NSCLC) | TGI (HS 578T breast) | TGI (HT29 colon) | TGI (IGROV1 ovarian) | TGI (KM12 colon) | TGI (LOX IMVI melanoma) | TGI (M14 melanoma) | TGI (MCF7 breast) | TGI (MDA-MB-231 breast) | TGI (MDA-MB-435) | TGI (MDA-N) | TGI (MOLT-4 leukemia) | TGI (NCI-H23 lung) | TGI (NCI-H460 lung) | TGI (NCI-H522 lung) | TGI (NCI/ADR-RES ovarian) | TGI (OVCAR-3 ovarian) | TGI (OVCAR-4 ovarian) | TGI (OVCAR-5 ovarian) | TGI (OVCAR-8 ovarian) | TGI (PC-3 prostate) | TGI (RPMI-8226 leukemia) | TGI (SF-268 CNS) | TGI (SF-295 CNS) | TGI (SF-539 CNS) | TGI (SK-MEL-2 melanoma) | TGI (SK-MEL-28 melanoma) | TGI (SK-MEL-5 melanoma) | TGI (SN12C renal) | TGI (SNB-19 CNS) | TGI (SNB-75 CNS) | TGI (SR leukemia) | TGI (SW-620 colon) | TGI (T-47D breast) | TGI (TK-10 renal) | TGI (UACC-257 melanoma) | TGI (UACC-62 melanoma) | TGI (UO-31 renal)

Cc1nc2sc(C(=O)Nc3cccc(Cl)c3C)c(N)c2cc1C(=O)/C=C/c1ccccc1
> 14300 nM: TGI (OVCAR-8 ovarian)
981 nM: TGI (U251 CNS)
1720 nM: TGI (BT-549 breast)
2880 nM: TGI (SK-MEL-28 melanoma)
1400 nM: TGI (A498 renal)
active: GI50 (786-0 renal) 232 nM | GI50 (A498 renal) 298 nM | GI50 (ACHN renal) 327 nM | GI50 (CAKI-1 renal) 417 nM | GI50 (CCRF-CEM leukemia) 176 nM | GI50 (HCT-116 colon) 186 nM | GI50 (HCT-15 colon) 183 nM | GI50 (HOP-62 NSCLC) 339 nM | GI50 (HOP-92 NSCLC) 371 nM | GI50 (HS 578T breast) 380 nM | GI50 (HT29 colon) 178 nM | GI50 (IGROV1 ovarian) 316 nM | GI50 (K-562 leukemia) 251 nM | GI50 (LOX IMVI melanoma) 188 nM | GI50 (M14 melanoma) 239 nM | GI50 (MALME-3M melanoma) 315 nM | GI50 (MCF7 breast) 192 nM | GI50 (MDA-MB-435) 111 nM | GI50 (NCI-H460 lung) 424 nM | GI50 (NCI-H522 lung) 172 nM | GI50 (NCI/ADR-RES ovarian) 176 nM | GI50 (OVCAR-3 ovarian) 199 nM | GI50 (PC-3 prostate) 330 nM | GI50 (RPMI-8226 leukemia) 140 nM | GI50 (RXF 393 renal) 206 nM | GI50 (SK-MEL-2 melanoma) 304 nM | GI50 (SNB-75 CNS) 217 nM | GI50 (SR leukemia) 188 nM | GI50 (SW-620 colon) 206 nM | GI50 (U251 CNS) 252 nM | GI50 (UACC-62 melanoma) 303 nM
13000 nM: TGI (SK-OV-3 ovarian)
> 13500 nM: TGI (HS 578T breast)
4470 nM: TGI (MALME-3M melanoma)
737 nM: TGI (OVCAR-3 ovarian)
inactive: GI50 (A549 NSCLC) 476 nM | GI50 (BT-549 breast) 525 nM | GI50 (COLO 205 colon) 979 nM | GI50 (DU-145 prostate) 769 nM | GI50 (EKVX NSCLC) 1120 nM | GI50 (HCC-2998 colon) 827 nM | GI50 (HL-60(TB) leukemia) 575 nM | GI50 (KM12 colon) 479 nM | GI50 (MDA-MB-231 breast) 786 nM | GI50 (MOLT-4 leukemia) 760 nM | GI50 (NCI-H226 lung) 483 nM | GI50 (NCI-H23 lung) 755 nM | GI50 (OVCAR-4 ovarian) 1230 nM | GI50 (OVCAR-5 ovarian) 714 nM | GI50 (OVCAR-8 ovarian) 543 nM | GI50 (SF-268 CNS) 938 nM | GI50 (SF-295 CNS) 446 nM | GI50 (SF-539 CNS) 595 nM | GI50 (SK-MEL-28 melanoma) 641 nM | GI50 (SK-MEL-5 melanoma) 572 nM | GI50 (SK-OV-3 ovarian) 1440 nM | GI50 (SN12C renal) 532 nM | GI50 (SNB-19 CNS) 651 nM | GI50 (T-47D breast) 767 nM | GI50 (TK-10 renal) 1060 nM | GI50 (UACC-257 melanoma) 1500 nM | GI50 (UO-31 renal) 438 nM
711 nM: TGI (LOX IMVI melanoma)
12600 nM: TGI (UACC-257 melanoma)
7030 nM: TGI (OVCAR-4 ovarian)
2840 nM: TGI (DU-145 prostate)
5450 nM: TGI (SNB-75 CNS)
2260 nM: TGI (MDA-MB-231 breast)
888 nM: TGI (HT29 colon)
1350 nM: TGI (M14 melanoma)
2130 nM: TGI (HL-60(TB) leukemia)
1730 nM: TGI (HOP-62 NSCLC)
6680 nM: TGI (A549 NSCLC)
1100 nM: TGI (IGROV1 ovarian) | TGI (UO-31 renal)
801 nM: TGI (RXF 393 renal)
656 nM: TGI (NCI/ADR-RES ovarian)
1740 nM: TGI (NCI-H460 lung) | TGI (OVCAR-5 ovarian)
5150 nM: TGI (SF-268 CNS)
4540 nM: TGI (TK-10 renal)
263 nM: TGI (MDA-MB-435)
2110 nM: TGI (HOP-92 NSCLC)
8610 nM: TGI (SK-MEL-2 melanoma)
5690 nM: TGI (EKVX NSCLC)
999 nM: TGI (NCI-H522 lung)
465 nM: TGI (RPMI-8226 leukemia)
3110 nM: TGI (SNB-19 CNS)
1910 nM: TGI (UACC-62 melanoma)
1830 nM: TGI (SN12C renal)
907 nM: TGI (786-0 renal)
1500 nM: TGI (KM12 colon)
1540 nM: TGI (PC-3 prostate)
1090 nM: TGI (ACHN renal)
2390 nM: TGI (COLO 205 colon)
2400 nM: TGI (T-47D breast)
2100 nM: TGI (SF-295 CNS)
1680 nM: TGI (NCI-H226 lung)
2440 nM: TGI (NCI-H23 lung)
707 nM: TGI (HCT-116 colon)
1320 nM: TGI (SW-620 colon)
> 50000 nM: TGI (CCRF-CEM leukemia) | TGI (K-562 leukemia) | TGI (MOLT-4 leukemia)
1570 nM: TGI (HCC-2998 colon)
1170 nM: TGI (CAKI-1 renal)
1430 nM: TGI (SF-539 CNS) | TGI (SK-MEL-5 melanoma)
3320 nM: TGI (MCF7 breast)
817 nM: TGI (HCT-15 colon)

CC(=O)N1C(=O)CC2(N=C(C)CC2=O)c2ccccc21 (stereo not given)
> 10000 nM: TGI (A498 renal) | TGI (A549 NSCLC) | TGI (ACHN renal) | TGI (CAKI-1 renal) | TGI (COLO 205 colon) | TGI (DU-145 prostate) | TGI (EKVX NSCLC) | TGI (HCT-116 colon) | TGI (HCT-15 colon) | TGI (HOP-92 NSCLC) | TGI (HT29 colon) | TGI (IGROV1 ovarian) | TGI (KM12 colon) | TGI (M14 melanoma) | TGI (MDA-MB-231 breast) | TGI (MDA-MB-435) | TGI (MDA-N) | TGI (NCI-H226 lung) | TGI (NCI-H23 lung) | TGI (NCI/ADR-RES ovarian) | TGI (OVCAR-3 ovarian) | TGI (OVCAR-4 ovarian) | TGI (OVCAR-5 ovarian) | TGI (OVCAR-8 ovarian) | TGI (PC-3 prostate) | TGI (RXF 393 renal) | TGI (SF-268 CNS) | TGI (SF-295 CNS) | TGI (SF-539 CNS) | TGI (SK-MEL-28 melanoma) | TGI (SK-MEL-5 melanoma) | TGI (SN12C renal) | TGI (SNB-19 CNS) | TGI (SNB-75 CNS) | TGI (SW-620 colon) | TGI (TK-10 renal) | TGI (U251 CNS) | TGI (UO-31 renal)

CCOC(=O)C(Cl)(NC(=O)NC(Cl)(C(=O)OCC)C(F)(F)F)C(F)(F)F (stereo not given)
> 100000 nM: TGI (786-0 renal) | TGI (A498 renal) | TGI (ACHN renal) | TGI (CCRF-CEM leukemia) | TGI (COLO 205 colon) | TGI (HCC-2998 colon) | TGI (HCT-116 colon) | TGI (HCT-15 colon) | TGI (HL-60(TB) leukemia) | TGI (HS 578T breast) | TGI (HT29 colon) | TGI (K-562 leukemia) | TGI (LOX IMVI melanoma) | TGI (MDA-N) | TGI (MOLT-4 leukemia) | TGI (NCI-H23 lung) | TGI (NCI/ADR-RES ovarian) | TGI (OVCAR-5 ovarian) | TGI (PC-3 prostate) | TGI (RPMI-8226 leukemia) | TGI (RXF 393 renal) | TGI (SF-268 CNS) | TGI (SF-539 CNS) | TGI (SK-MEL-2 melanoma) | TGI (SK-MEL-28 melanoma) | TGI (SK-OV-3 ovarian) | TGI (SN12C renal) | TGI (SNB-19 CNS) | TGI (SNB-75 CNS) | TGI (SR leukemia) | TGI (U251 CNS) | TGI (UACC-257 melanoma) | TGI (UO-31 renal)

Reference: PubChem BioAssay (NCI)
